According to PubChem BioAssay (NCI):
Several values for one entry are separate records, joined by “and”; a condition that tells them apart may be missing. Equal entries are not always repeated.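 Grown in 96-well plates, cells were treated for 48 hours with each compound at five concentrations. Insufficient inhibition: endpoint recorded as highest concentration tested. GI50: concentration for 50% inhibition of growth. TGI is the concentration that stops growth completely.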

Tests used:
Assay in all cases: NCI anticancer screen, dose series, 48 h
OVCAR-8 ovarian = test system: OVCAR-8 ovarian
SF-539 CNS = test system: SF-539 CNS
CCRF-CEM leukemia = test system: CCRF-CEM leukemia
DU-145 prostate = test system: DU-145 prostate
SK-MEL-28 melanoma = test system: SK-MEL-28 melanoma
RXF 393 renal = test system: RXF 393 renal
M14 melanoma = test system: M14 melanoma
786-0 renal = test system: 786-0 renal
KM12 colon = test system: KM12 colon
HCT-116 colon = test system: HCT-116 colon

Row | Compound | GI50 (OVCAR-8 ovarian) | TGI (OVCAR-8 ovarian) | GI50 (SF-539 CNS) | TGI (SF-539 CNS) | GI50 (CCRF-CEM leukemia) [µM] | TGI (CCRF-CEM leukemia) [µM] | GI50 (DU-145 prostate) | TGI (DU-145 prostate) | GI50 (SK-MEL-28 melanoma) | TGI (SK-MEL-28 melanoma) | GI50 (RXF 393 renal) | TGI (RXF 393 renal) | GI50 (M14 melanoma) | TGI (M14 melanoma) | GI50 (786-0 renal) | TGI (786-0 renal) | GI50 (KM12 colon) | TGI (KM12 colon) | GI50 (HCT-116 colon) | TGI (HCT-116 colon)
1 | O=C(Nc1cn[nH]c1-c1nc2ccc(CN3CCOCC3)cc2[nH]1)NC1CC1 | 1.74 µM and 5.19 µM | 9.63 µM and > 10 µM | 0.262 µM and 0.688 µM | 1.35 µM and 3.7 µM | 1.42 | 8.69 | 2.6 µM and > 10 µM | 14.7 µM and > 10 µM | 1.79 µM and > 10 µM | 5.7 µM and > 10 µM | 0.241 µM and 0.287 µM | 1.79 µM and 2.17 µM | 1.52 µM and 4.84 µM | 4.34 µM and > 10 µM | 1.06 µM and 1.67 µM | 7.68 µM and > 10 µM | 0.634 µM and 1.72 µM | 4.06 µM and > 10 µM | 0.208 µM and 0.473 µM | 10.8 µM and > 10 µM
2 | C#Cc1cccc(NC(=O)c2cccc(NC(=O)CCl)c2)c1 | 17.5 µM | > 82.5 µM | 13 µM | 24.5 µM | 7.29 | 54.5 | 29.2 µM | > 82.5 µM | 43.1 µM | > 82.5 µM | 12.7 µM | 29.8 µM | 32.2 µM | > 82.5 µM | 14.2 µM | 28.1 µM | 17.4 µM | 60.6 µM | 7.98 µM | 44.6 µM
3 | S=C1SCN(Cc2ccccc2)CN1Cc1ccccc1 | 21.6 µM | 90 µM | 17.2 µM | > 61.3 µM | 1.15 | 3.56 | 2.69 µM | 9.18 µM | 5.27 µM | 17.9 µM | 1.55 µM | 6.32 µM | 6.5 µM | 27.8 µM | 7.63 µM | 23.1 µM | 2.1 µM | 6.84 µM | 3.05 µM | 13 µM
4 | O=C(Nc1cccc(C(F)(F)F)c1)c1ccc(NC2=C(Cl)C(=O)N(Cc3ccccc3)C2=O)cc1 | 38.4 µM | > 100 µM | 14.9 µM | 34.1 µM | 3.06 | > 100 | 3.38 µM | 12.3 µM | 18.2 µM | 36.5 µM | 29.4 µM | 64.8 µM | 9.26 µM | 21.7 µM | 12.1 µM | 24.5 µM | 10.5 µM | 24.8 µM | 2.81 µM | 9.22 µM
5 | CCCCc1n(Cc2ccc3ccccc3n2)cc[n+]1Cc1ccc2ccccc2n1 | 2.73 µM | 12 µM | 1.8 µM | 12.6 µM | 1.59 | 13.9 | 3.27 µM | 16.2 µM | 1.05 µM | 12.2 µM | 4.17 µM | 16.5 µM | 1.71 µM | 10.2 µM | 4.65 µM | 17.3 µM | 0.742 µM | 6.19 µM | 2.1 µM | 11 µM
6 | Cc1ccc2[nH]c(O)c(N=Nc3ccccc3[N+](=O)[O-])c2c1 |  | > 33.9 µM |  | 4.78 µM |  | > 100 |  | > 100 µM |  | > 100 µM |  | 20.8 µM |  | > 100 µM |  | 3.6 µM |  | > 40.3 µM |  | 12.2 µM
7 | C=CCOc1ccc(N)c([N+](=O)[O-])c1 |  | > 100 µM |  | > 100 µM |  | > 100 |  | > 100 µM |  | > 100 µM |  | > 100 µM |  | > 100 µM |  | > 100 µM |  | > 100 µM |  | > 100 µM
8 | COc1ccc(C2CC(c3ccc(OC)cc3O)=NN2c2ccc(S(N)(=O)=O)cc2)cc1 (stereo not given) | 24.1 µM | > 100 µM | 30.2 µM | > 100 µM | 16.1 | > 100 | 44.5 µM | > 100 µM | 15 µM | > 100 µM | 25.6 µM | > 100 µM | 4.54 µM | 25.9 µM | 18.4 µM | > 100 µM | 5.14 µM | > 100 µM | 4.47 µM | 69.3 µM
9 | COc1ccc(CNCCCN2C(=O)c3ccc4c5c(ccc(c35)C2=O)C(=O)N(CCCNCc2ccc(OC)c(OC)c2OC)C4=O)c(OC)c1OC | 0.0914 µM | 0.242 µM | 0.102 µM | 0.235 µM | 0.137 | 2.04 | 0.093 µM | 0.185 µM | 0.508 µM | 1.12 µM | 0.0823 µM | 0.176 µM | 0.0855 µM | 0.162 µM | 0.333 µM | 1.02 µM | 0.0792 µM | 0.168 µM | 0.0773 µM | 0.169 µM
10 | Cc1ccc2[nH]c(C(=O)NN3C(=O)C(C)SC34CCC(C)CC4)c(-c3ccccc3)c2c1 (stereo not given) | 21.2 µM | 53.2 µM | 20.8 µM | 45.6 µM | 20.4 | 79.6 | 21.8 µM | 54.3 µM | 17.8 µM | 35.9 µM | 13.7 µM | 30.1 µM | 18.2 µM | 39 µM | 19 µM | 52.6 µM | 15.4 µM | 35.2 µM | 15.2 µM | 34.5 µM
11 | COc1ccccc1NC(=O)CC(=O)n1nc(C)c(N=Nc2ccccc2Cl)c1C |  | > 100 µM |  | > 100 µM |  | > 100 |  | > 100 µM |  | > 100 µM |  | > 100 µM |  | > 100 µM |  | > 100 µM |  | > 100 µM |  | > 100 µM
12 | CC[C@]12C=CCN3CC[C@@]4(c5ccc(OC)cc5N(C)[C@H]4[C@@](O)(C(=O)OC)[C@@H]1OC(=O)CCC(=O)O[C@H]1CC[C@H]4[C@@H]5CC[C@H]6CC(=O)CC[C@]6(C)[C@H]5CC[C@]14C)[C@@H]32 | 5.84 µM | > 100 µM | 3.89 µM | > 100 µM | 3.04 | > 100 | 3.66 µM | 61.2 µM | 3.27 µM | > 100 µM | 2.31 µM | 6.73 µM | 2 µM | 22.2 µM | 1.97 µM | > 100 µM | 3.16 µM | > 100 µM | 1.02 µM | 10.1 µM
13 | CCN(CC)CCn1c(=O)c2cc(OC)c(OC)cc2c2ccc3cc4c(cc3c21)OCO4 | 0.922 µM | 48.9 µM | 0.253 µM | 0.818 µM | 0.0824 | > 33.6 | 0.321 µM | 6.93 µM | 12 µM | 24.8 µM | 0.448 µM | 17.2 µM | 0.278 µM | 12.7 µM | 0.479 µM | 13.4 µM | 0.734 µM | 23.9 µM | 0.377 µM | 6.2 µM
